Results reported in ChEMBL document CHEMBL2163261, “Anti-HIV-1 activity of resveratrol derivatives and synergistic inhibition of HIV-1 by the combination of resveratrol and decitabine” (Bioorg Med Chem Lett, 2012).

Experiments:
[1] = tested on: Human immunodeficiency virus 1; assay: Antiviral activity against HIV1 infected in human U373-MAGI cells expressing CXCR4 assessed as inhibition of viral infection preincubated for 2 hrs prior to infection followed by compound wash out measured after 48 hrs by single round replication assay; type: functional, organism-based; details: for EC50: Human immunodeficiency virus 1, U373-MAGI
[2] = tested on: Human immunodeficiency virus 1; assay: Antiviral activity against HIV1 infected in human U373-MAGI cells expressing CXCR4 assessed as infected host cells at 30 uM preincubated for 2 hrs prior to infection followed by compound wash out measured after 48 hrs by single round replication assay; type: functional
[3] = tested on: Human immunodeficiency virus 1; assay: Antiviral activity against HIV1 infected in human U373-MAGI cells expressing CXCR4 assessed as frequency of viral mutagenesis at 30 uM preincubated for 2 hrs prior to infection followed by compound wash out measured after 48 hrs by flow cytometry relative to control; type: functional
[4] = Selectivity index, ratio of TC50 for human U373-MAGI cells to EC50 for human U373-MAGI cells infected with HIV1; type: toxicity, cell-based; details: read-out: Selectivity Index
[5] = Cytotoxicity against human U373-MAGI cells expressing CXCR4; type: cell-based; details: read-out: TC50 (the source's name)
[6] = tested on: Human immunodeficiency virus 1; assay: Antiviral activity against HIV1 infected in human U373-MAGI cells expressing CXCR4 assessed as infected host cells at 20 uM preincubated for 2 hrs prior to infection followed by compound wash out post infection measured after 48 hrs by single round replication assay; type: functional
[7] = tested on: Human immunodeficiency virus 1; assay: Antiviral activity against HIV1 infected in human U373-MAGI cells expressing CXCR4 assessed as frequency of viral mutagenesis at 20 uM preincubated for 2 hrs prior to infection followed by compound wash out measured after 48 hrs by flow cytometry relative to control; type: functional
[8] = tested on: Human immunodeficiency virus 1; assay: Antiviral activity against HIV1 infected in human U373-MAGI cells expressing CXCR4 assessed as infected host cells at 6 uM preincubated for 2 hrs prior to infection followed by compound wash out measured after 48 hrs by single round replication assay; type: functional
[9] = tested on: Human immunodeficiency virus 1; assay: Antiviral activity against HIV1 infected in human U373-MAGI cells expressing CXCR4 assessed as frequency of viral mutagenesis at 6 uM preincubated for 2 hrs prior to infection followed by compound wash out measured after 48 hrs by flow cytometry relative to control; type: functional
[10] = tested on: Human immunodeficiency virus 1; assay: Antiviral activity against HIV1 infected in human U373-MAGI cells expressing CXCR4 assessed as infected host cells at 70 nM preincubated for 2 hrs prior to infection followed by compound wash out measured after 48 hrs by single round replication assay; type: functional
[11] = tested on: Human immunodeficiency virus 1; assay: Antiviral activity against HIV1 infected in human U373-MAGI cells expressing CXCR4 assessed as frequency of viral mutagenesis at 70 nM preincubated for 2 hrs prior to infection followed by compound wash out measured after 48 hrs by flow cytometry relative to control; type: functional

Compound | EC50 [1] [µM] | selectivity ratio [4] | Activity [1] | CC50 [5] [µM] | also measured
Oc1ccc(-n2cc(-c3cc(O)cc(O)c3)nn2)cc1 | > 75 | – | – | – | –
Oc1cc(O)cc(-c2ccc3cnccc3c2)c1 | > 75 | – | – | – | –
Oc1ccc(-c2sc3ccccc3c2-c2cc(O)cc(O)c2)cc1 | 45.1 | 2.6 | Dose-dependent effect | 118 | Activity [2]: 99%; Ratio [3]: 1.08
Cn1c(-c2ccc(O)cc2)ccc1-c1cc(O)cc(O)c1 | > 75 | – | – | – | –
Oc1ccc(-c2cc(-c3cc(O)cc(O)c3)on2)cc1 | > 75 | – | – | – | –
Oc1ccc(/C=C/c2cc(O)cc(O)c2)cc1 [RESVERATROL] | > 75 | – | Dose-dependent effect | > 300 | Activity [6]: 91%; Ratio [7]: 1.08
Oc1ccc(-c2c(-c3cc(O)cc(O)c3)oc3ccccc23)cc1 | 35 | 2.4 | Dose-dependent effect | 84.8 | –
Oc1ccc(-c2ccc(-c3cc(O)cc(O)c3)cc2)cc1 | 8.8 | 20.3 | Dose-dependent effect | 179 | Activity [8]: 96%; Ratio [9]: 1.1
Oc1ccc(-c2ncc(-c3cc(O)cc(O)c3)cn2)cc1 | > 75 | – | – | – | –
Oc1ccc(-c2oc3ccccc3c2-c2cc(O)cc(O)c2)cc1 | 65.1 | 1.5 | Dose-dependent effect | 108 | –
Oc1cc(O)cc(-c2ccc3cc(O)ccc3c2)c1 | > 75 | – | – | – | –
Nc1ncn([C@H]2C[C@H](O)[C@@H](CO)O2)c(=O)n1 [DECITABINE] | – | – | – | – | Activity [10]: 93%; Ratio [11]: 1.26
Oc1cc(O)cc(/C=C/c2ccc(O)c(O)c2)c1 [PICEATANNOL] | 21.4 | > 18.7 | Dose-dependent effect | > 400 | Activity [8]: 88%; Ratio [9]: 1.16
Oc1cc(O)cc(-c2ccc(-c3ccncc3)cc2)c1 | > 100 | – | – | – | –
Oc1ccc(-c2c(-c3cc(O)cc(O)c3)sc3ccccc23)cc1 | 34.4 | 3.8 | Dose-dependent effect | 131 | –
O=C(/C=C/c1ccc(O)cc1)c1cc(O)cc(O)c1 | > 75 | – | – | – | –
Oc1ccc(-c2cnc(-c3cc(O)cc(O)c3)nc2)cc1 | > 75 | – | – | – | –
